Experimental data published in patent US6355799B1, “Substituted benzene compounds, process for their preparation, and herbicidal and defoliant compositions containing them” (ISK Americas Incorporated, priority 1997, dated 2002).

What was measured:
Format in all cases: in vivo
[1] = test system: upland rice (Oryza sp., var. Tebonnet, RICE); test: Post-emerge test, crop safety; conditions: post-emerge, 14 days after application, rating scale 0-100
Procedure, shortened: (§1)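 Rating: 0–100 visual injury, 14 DAA. Application: acetone, 187 l/ha, 15–1000 g ai/ha, flat-fan track sprayer with nozzle 40–45 cm above soil or canopy. Post-emerge runs used 0.25% v/v surfactant on 2–3 leaf plants.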

[2] = test system: field corn (Zea mays L., var. Dekalb 535, CORN); test: Post-emerge test, crop safety; conditions: post-emerge, 14 days after application, rating scale 0-100
Procedure, shortened: as §1

[3] = test system: ivyleaf morningglory (Ipomoea hederacea, IPOHE); test: Post-emerge test, greenhouse herbicide activity screening; conditions: post-emerge, 14 days after application, rating scale 0-100
Procedure, shortened: (§2)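 Compounds in acetone were track-sprayed at 187 l/ha, 15–1000 g ai/ha, onto sandy loam pots. Pre-emerge seeds were sown one day before spraying, with surface watering afterwards. Post-emerge plants were at the 2–3 leaf stage and sprayed with 0.25% v/v non-ionic surfactant. Injury was rated 0–100 at 14 days.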

[4] = test system: sicklepod (Cassia obtusifolia, CASOB); test: as above; conditions: post-emerge, 14 days after application, rating scale 0-100
Procedure, shortened: as §2

[5] = test system: large crabgrass (Digitaria sanguinalis, DIGSA); test: as above; conditions: post-emerge, 14 days after application, rating scale 0-100
Procedure, shortened: as §2

[6] = test system: barnyardgrass (Echinochloa crus-galli, ECHCG); test: as above; conditions: post-emerge, 14 days after application, rating scale 0-100
Procedure, shortened: as §2

[7] = test system: velvetleaf (Abutilon theophrasti, ABUTH); test: as above; conditions: post-emerge, 14 days after application, rating scale 0-100
Procedure, shortened: as §2

[8] = test system: lambsquarters (Chenopodium album, CHEAL); test: as above; conditions: post-emerge, 14 days after application, rating scale 0-100
Procedure, shortened: as §2

[9] = test system: redroot pigweed (Amaranthus retroflexus, AMARE); test: as above; conditions: post-emerge, 14 days after application, rating scale 0-100
Procedure, shortened: as §2

[10] = test system: johnsongrass (Sorghum halepense, SORHA); test: as above; conditions: post-emerge, 14 days after application, rating scale 0-100
Procedure, shortened: as §2

[11] = test system: green foxtail (Setaria viridis, SETVI); test: as above; conditions: post-emerge, 14 days after application, rating scale 0-100
Procedure, shortened: as §2

[12] = test system: upland rice (Oryza sp., var. Tebonnet, RICE); test: Pre-emerge test, crop safety; conditions: pre-emerge, 14 days after application, scale 0-100
Procedure, shortened: (§3)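 Fourteen days after spraying, crop and weed injury was graded visually from 0, no effect, to 100, every plant dead. Test substances were dissolved in acetone and applied at 15–1000 g ai/ha with a flat-fan nozzle. Application was either pre-emergence, one day after sowing, or post-emergence at the 2–3 leaf stage.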

[13] = test system: field corn (Zea mays L., var. Dekalb 535, CORN); test: Pre-emerge test, crop safety; conditions: pre-emerge, 14 days after application, scale 0-100
Procedure, shortened: as §3

[14] = test system: ivyleaf morningglory (Ipomoea hederacea, IPOHE); test: Pre-emerge test, greenhouse herbicide activity screening; conditions: pre-emerge, 14 days after application, scale 0-100
Procedure, shortened: (§4)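 Compounds in acetone were track-sprayed at 15–1000 g ai/ha: pre-emergence onto soil sown the previous day, then top-watered to incorporate and later bottom-watered; post-emergence onto 2–3 leaf plants with 0.25% v/v surfactant, bottom-watered only. Ratings on a 0–100 phytotoxicity scale were taken at day 14.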

[15] = test system: sicklepod (Cassia obtusifolia, CASOB); test: as above; conditions: pre-emerge, 14 days after application, scale 0-100
Procedure, shortened: as §4

[16] = test system: large crabgrass (Digitaria sanguinalis, DIGSA); test: as above; conditions: pre-emerge, 14 days after application, scale 0-100
Procedure, shortened: as §4

[17] = test system: barnyardgrass (Echinochloa crus-galli, ECHCG); test: as above; conditions: pre-emerge, 14 days after application, scale 0-100
Procedure, shortened: as §4

[18] = test system: velvetleaf (Abutilon theophrasti, ABUTH); test: as above; conditions: pre-emerge, 14 days after application, scale 0-100
Procedure, shortened: as §4

[19] = test system: lambsquarters (Chenopodium album, CHEAL); test: as above; conditions: pre-emerge, 14 days after application, scale 0-100
Procedure, shortened: as §4

[20] = test system: johnsongrass (Sorghum halepense, SORHA); test: as above; conditions: pre-emerge, 14 days after application, scale 0-100
Procedure, shortened: as §4

[21] = test system: green foxtail (Setaria viridis, SETVI); test: as above; conditions: pre-emerge, 14 days after application, scale 0-100
Procedure, shortened: as §4

[22] = test system: redroot pigweed (Amaranthus retroflexus, AMARE); test: as above; conditions: pre-emerge, 14 days after application, scale 0-100
Procedure, shortened: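 Sandy loam pots; pre-emerge: sown 1 d pre-spray, surface-watered after, then bottom-watered. Post-emerge: sown 8–21 d before, 2–3 leaf stage, + 0.25% v/v NIS, bottom-watered. Acetone, 187 l/ha track spray, 15–1000 g ai/ha. 0–100 injury score, day 14.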

## COc1c(Cl)cc(F)c(-n2c(=O)cc(C(F)(F)F)n(C)c2=O)c1NC(=O)CSc1ccc2ccccc2c1 [2-169]
[1]; 63 g ai/ha
  RICE phytotoxicity rating (crop damage): 10
[1]; 250 g ai/ha
  RICE phytotoxicity rating (crop damage): 10
[2]; 63 g ai/ha
  CORN phytotoxicity rating (crop damage): 10
[2]; 250 g ai/ha
  CORN phytotoxicity rating (crop damage): 10
[3]; 63 g ai/ha
  IPOHE phytotoxicity rating: 50
[3]; 250 g ai/ha
  IPOHE phytotoxicity rating: 40
[4]; 63 g ai/ha
  CASOB phytotoxicity rating: 10
[4]; 250 g ai/ha
  CASOB phytotoxicity rating: 10
[5]; 63 g ai/ha
  DIGSA phytotoxicity rating: 0
[5]; 250 g ai/ha
  DIGSA phytotoxicity rating: 0
[6]; 63 g ai/ha
  ECHCG phytotoxicity rating: 0
[6]; 250 g ai/ha
  ECHCG phytotoxicity rating: 0
[7]; 63 g ai/ha
  ABUTH phytotoxicity rating: 70
[7]; 250 g ai/ha
  ABUTH phytotoxicity rating: 80
[8]; 63 g ai/ha
  CHEAL phytotoxicity rating: 30
[8]; 250 g ai/ha
  CHEAL phytotoxicity rating: 40
[9]; 63 g ai/ha
  AMARE phytotoxicity rating: 10
[9]; 250 g ai/ha
  AMARE phytotoxicity rating: 0
[10]; 63 g ai/ha
  SORHA phytotoxicity rating: 0
[10]; 250 g ai/ha
  SORHA phytotoxicity rating: 0
[11]; 63 g ai/ha
  SETVI phytotoxicity rating: 0
[11]; 250 g ai/ha
  SETVI phytotoxicity rating: 0
[12]; 63 g ai/ha
  phytotoxicity rating RICE (crop damage): 10
[12]; 250 g ai/ha
  phytotoxicity rating RICE (crop damage): 40
[13]; 63 g ai/ha
  phytotoxicity rating CORN (crop damage): 0
[13]; 250 g ai/ha
  phytotoxicity rating CORN (crop damage): 0
[14]; 63 g ai/ha
  phytotoxicity rating IPOHE: 10
[14]; 250 g ai/ha
  phytotoxicity rating IPOHE: 20
[15]; 63 g ai/ha
  phytotoxicity rating CASOB: 20
[15]; 250 g ai/ha
  phytotoxicity rating CASOB: 30
[16]; 63 g ai/ha
  phytotoxicity rating DIGSA: 0
[16]; 250 g ai/ha
  phytotoxicity rating DIGSA: 80
[17]; 63 g ai/ha
  phytotoxicity rating ECHCG: 0
[17]; 250 g ai/ha
  phytotoxicity rating ECHCG: 0
[18]; 63 g ai/ha
  phytotoxicity rating ABUTH: 0
[18]; 250 g ai/ha
  phytotoxicity rating ABUTH: 90
[19]; 63 g ai/ha
  phytotoxicity rating CHEAL: 65
[19]; 250 g ai/ha
  phytotoxicity rating CHEAL: 100
[20]; 63 g ai/ha
  phytotoxicity rating SORHA: 0
[20]; 250 g ai/ha
  phytotoxicity rating SORHA: 20
[21]; 63 g ai/ha
  phytotoxicity rating SETVI: 0
[21]; 250 g ai/ha
  phytotoxicity rating SETVI: 30
[22]; 63 g ai/ha
  phytotoxicity rating AMARE: 70
[22]; 250 g ai/ha
  phytotoxicity rating AMARE: 80
